From patent publication US20160349268A1, “STEPWISE ASSEMBLED CAPTURE COMPOUNDS COMPRISING A CLEAVABLE FUNCTION AND METHOD FOR ISOLATING AND/OR CHARACTERIZING BIOMOLECULES OR BIOMOLECULE FRAGMENTS, IN PARTICULAR PROTEINS OR PROTEIN FRAGMENTS, OF COMPLEX MIXTURES” (CAPROTEC BIOANALYTICS GMBH, priority 2014, published 2016)

Tests used:
Assay type in all cases: physicochemical
[1] = Cleavage of 1 (CPT600) after photo-reaction in solution (UV irradiation, HCl treatment, RP-HPLC UV/MS); details: BPC + All MS
Procedure: In a 100 μL PCR tube, 20 μL 73 μM 1 (CPT600) was irradiated at 4° C. for 5 min in the caproBox (310 nm version, caprotec bioanalytics GmbH, Berlin, Germany). 1.7 μL 37% HCl was added, mixed and the solution was incubated on a thermoshaker at 37° C. for 2 h. Then 100 μL Milli-Q water and 9 μL 2N NaOH were added and mixed. The resulting solution as analyzed by RP-HPLC coupled to a UV detector and a mass spectrometer (FIG. 6 and Table 2a) as described in example 1. As a control, the same sample but with only very brief incubation under acidic conditions (r.t. for about 10 s instead of 37° C. for 2 h) was prepared (FIG. 7 and Table 2b).

[2] = Cleavage reaction of photo-reacted compound 11 (12) with HCl / 2-nitrobenzhydrazide, LC-MS; details: for Area/a.u. (LC-MS EIC peak): 45 μM 12, 1 h room temperature
Procedure: A solution of 75 μL 56 μM 11 (CPT727, Capture Compound bearing tetrazine as sorting function and a chemically cleavable photo-reactivity function) in 50% acetonitrile was irradiated with UV light (λmax=310 nm) for 5 min at 4° C. in the caproBox to activate the reactivity function yielding 12 (Scheme 12).
Cleavage of the photo-reacted reactivity function (15) from 12 yielding also 17 as a product (Scheme 13) was investigated under several conditions summarized in Table 5. The reaction was performed in a final volume of 10 μl for 1 h at room temperature. Each reaction mixture contained 8 μl of the above described solution of 12 (45 μM final concentration), 1 μl 100 mM or 10 mM 2-nitrobenzhydrazide in DMSO or just DMSO and 1 μl 100 mM or 10 mM HCl in water or just water. Analysis was performed by LC-MS. Integration of peak areas corresponding to the respective species is included into Table 5.

[3] = Cleavage of 1 (CPT600) after photo-reaction on CPG-pN3, with CPG-Ac and in-solution controls; parameters: Area: unit not given here
Procedure: 20 μL 10 mg/mL 1 (CPT600)-loaded CPG-pN3 from example 1 were transferred into a 100 μL PCR tube, centrifuged, the supernatant was discarded and 20 μL in water was added. The suspension was irradiated at 4° C. for 5 min (with re-suspending every 30 s) in the caproBox (310 nm version, caprotec bioanalytics GmbH, Berlin, Germany). 1.7 μL 37% HCl was added, mixed and the solution was incubated on a thermoshaker at 37° C. for 2 h. Then 100 μL Milli-Q water and 9 μL 2N NaOH were added and mixed. After centrifugation, the resulting supernatant was analyzed by RP-HPLC coupled to a UV detector and a mass spectrometer as described in example 1. As a control, the same sample but with only very brief incubation under acidic conditions (r.t. for about 10 s instead of 37° C. for 2 h) was prepared.
Further controls included using 1 (CPT600)-treated CPG-Ac from example 1 (short and long acid treatment) instead of 1 (CPT600)-loaded CPG-pN3 and 1 (CPT600) in solution (short and long acid treatment) as described in example 2. All six experiments were performed side-by-side.

[4] = 1 (CPT600) after UV irradiation and HCl 37 °C 2 h
[5] = c(HCl) 0 mM, c(2-nitrobenzhydrazide) 1 mM
[6] = c(HCl) 0 mM, c(2-nitrobenzhydrazide) 10 mM
[7] = c(HCl) 1 mM, c(2-nitrobenzhydrazide) 1 mM
[8] = c(HCl) 1 mM, c(2-nitrobenzhydrazide) 10 mM
[9] = c(HCl) 10 mM, c(2-nitrobenzhydrazide) 1 mM
[10] = c(HCl) 10 mM, c(2-nitrobenzhydrazide) 10 mM
[11] = In solution, 2 h HCl, BPC + All MS
[12] = In solution, 2 h HCl, UV 254 nm
[13] = On CPG-Ac, 2 h HCl, BPC + All MS
[14] = On CPG-pN3, 2 h HCl, BPC + All MS
[15] = c(HCl) 0 mM, c(2-nitrobenzhydrazide) 0 mM
[16] = c(HCl) 1 mM, c(2-nitrobenzhydrazide) 0 mM
[17] = c(HCl) 10 mM, c(2-nitrobenzhydrazide) 0 mM
[18] = In solution, 0 h HCl, BPC + All MS
[19] = In solution, 0 h HCl, UV 254 nm
[20] = CPG-Ac instead of CPG-pN3, 2 h acidic treatment

C#CCNC(=O)C1(C(=O)NCCCC[C@@H](C(=O)NCCc2ccc(NC(=O)CCCCCCC(=O)O)cc2)[N+](C)(C)C)COC(c2ccc(C3(C(F)(F)F)N=N3)cc2)OC1 (stereo partly shown) [Compound 2]
Area (MS-peak integration) [1, 4]: 167125312
Area Frac. % [1, 4]: 2.52%

Cc1nnc(-c2ccc(CN(CC(=O)NCCCCNc3ncnc4c3ncn4C3OC(CSCC[C@H](N)C(=O)O)C(O)C3O)C(=O)CC/C=N/NC(=O)c3ccccc3[N+](=O)[O-])cc2)nn1 (stereo partly shown) [Compound 17]
Area/a.u. (LC-MS EIC peak) [2, 5]: 50293356 a.u.
Area/a.u. (LC-MS EIC peak) [2, 6]: 116403456 a.u.
Area/a.u. (LC-MS EIC peak) [2, 7]: 623734464 a.u.
Area/a.u. (LC-MS EIC peak) [2, 8]: 1157550976 a.u.
Area/a.u. (LC-MS EIC peak) [2, 9]: 694334592 a.u.
Area/a.u. (LC-MS EIC peak) [2, 10]: 1188207104 a.u.

C#CCNC(=O)C(CO)(CO)C(=O)NCCCC[C@@H](C(=O)NCCc1ccc(NC(=O)CCCCCCC(=O)O)cc1)[N+](C)(C)C [Compound 7]
Area (MS-peak integration) [1, 4]: 1798498944
Area Frac. % [1, 4]: 27.10%
amount in supernatant of CPG bead samples compared to solution sample (base peak MS peak areas) ([3]; 2 h acidic treatment): 16.1%
Area [3, 11]: 1793367808
Area Frac % [3, 11]: 35.46%
Area [3, 12]: 15.084
Area Frac % [3, 12]: 13.18%
Area [3, 13]: 114680936
Area Frac % [3, 13]: 41.23%
Area [3, 14]: 288188416
Area Frac % [3, 14]: 65.33%

Cc1nnc(-c2ccc(CN(CC(=O)NCCCCNc3ncnc4c3ncn4C3OC(CSCC[C@H](N)C(=O)O)C(O)C3O)C(=O)CC/C=N/N(C)C(=O)c3ccc(C(O)C(F)(F)F)cc3)cc2)nn1 (stereo partly shown) [Compound 12]
fraction cleaved ([2]; 1 mM or higher concentration of HCl alone, room temperature, within 1 h): more than 60%
detection of starting material ([2]; 10 mM HCl and 1 mM or 10 mM 2-nitrobenzhydrazide): no longer detected
Area/a.u. (LC-MS EIC peak) [2, 15]: 865231808 a.u.
Area/a.u. (LC-MS EIC peak) [2, 5]: 601044672 a.u.
Area/a.u. (LC-MS EIC peak) [2, 6]: 616590720 a.u.
Area/a.u. (LC-MS EIC peak) [2, 16]: 315121856 a.u.
Area/a.u. (LC-MS EIC peak) [2, 7]: 130056936 a.u.
Area/a.u. (LC-MS EIC peak) [2, 8]: 5361744 a.u.
Area/a.u. (LC-MS EIC peak) [2, 17]: 17781000 a.u.

C#CCNC(=O)C1(C(=O)NCCCC[C@@H](C(=O)NCCc2ccc(NC(=O)CCCCCCC(=O)NO)cc2)[N+](C)(C)C)COC(c2ccc(C(O)C(F)(F)F)cc2)OC1 (stereo partly shown) [Compound 3]
Area (MS-peak integration) [1, 4]: 432395200
Area Frac. % [1, 4]: 6.52%
Area (MS-peak integration) ([1]; 1 (CPT600) after UV irradiation, very brief acid (r.t. about 10 s, control)): 3091667200
Area [3, 18]: 2114062848
Area Frac % [3, 18]: 100.00%
Area [3, 19]: 31.679
Area Frac % [3, 19]: 100.00%

C#CCNC(=O)C1(C(=O)NCCCC[C@@H](C(=O)NCCc2ccc(NC(=O)CCCCCCC(=O)O)cc2)[N+](C)(C)C)COC(c2ccc(C(O)C(F)(F)F)cc2)OC1 (stereo partly shown) [Compound 4]
Area (MS-peak integration) [1, 4]: 386267200
Area Frac. % [1, 4]: 5.82%

O=Cc1ccc(C(O)C(F)(F)F)cc1 (stereo not shown) [Compound 6]
amount of cleavage fragment relative to the respective CPG-pN3 sample (UV peak areas) [3, 20]: 8.0%
amount of cleavage fragment relative to the respective sample in solution (UV peak areas) [3, 20]: 3.9%
Area [3, 12]: 63.355
Area Frac % [3, 12]: 55.35%
Area ([3]; On CPG-Ac, 2 h HCl, UV 254 nm): 2.4903
Area Frac % ([3]; On CPG-Ac, 2 h HCl, UV 254 nm): 30.94%
Area ([3]; On CPG-pN3, 2 h HCl, UV 254 nm): 30.9728
Area Frac % ([3]; On CPG-pN3, 2 h HCl, UV 254 nm): 85.18%
amount of cleavage fragment relative to the respective sample in solution (UV peak areas) ([3]; UV-irradiated 1 (CPT600)-loaded CPG-pN3, 2 h acidic treatment): 48.9%

CN(N)C(=O)c1ccc(C(O)C(F)(F)F)cc1 (stereo not shown) [Compound 15]
Area/a.u. (LC-MS EIC peak) [2, 15]: 15540301 a.u.
Area/a.u. (LC-MS EIC peak) [2, 5]: 19033696 a.u.
Area/a.u. (LC-MS EIC peak) [2, 6]: 20155070 a.u.
Area/a.u. (LC-MS EIC peak) [2, 16]: 75526584 a.u.
Area/a.u. (LC-MS EIC peak) [2, 7]: 93782304 a.u.
Area/a.u. (LC-MS EIC peak) [2, 8]: 120971320 a.u.
Area/a.u. (LC-MS EIC peak) [2, 17]: 101335752 a.u.
Area/a.u. (LC-MS EIC peak) [2, 9]: 119463976 a.u.
Area/a.u. (LC-MS EIC peak) [2, 10]: 130339744 a.u.
